Entries after “also recorded” stand apart in the source; their conditions may differ.
Tests used:
518A2 (melanoma) = assay: SRB cytotoxicity assay, 518A2; type: cell-based, human; conditions: for EC50: Homo sapiens, SRB assay, 96 h of treatment, 518A2; for Selectivity index (SI) 518A2: SI = EC50 (NIH 3T3)/EC50 (518A2)
Method in brief: (§1)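 Monolayer cultures in RPMI 1640/10% FBS, 37 °C, 5% CO2, were treated for 96 h over 1–30 µM. The EC50 was obtained by a four-parameter Hill-slope fit of the SRB absorbance at 570 nm.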

[1] = test system: A2780 (ovarian carcinoma); assay: SRB cytotoxicity assay, A2780; type: cell-based, human; conditions: for factor by which activity is reduced compared to doxorubicin hydrochloride (DRC): A2780 tumor cells, EC50 versus DRC; for EC50: Homo sapiens, SRB assay, 96 h of treatment, A2780; for Selectivity index (SI) A2780: SI = EC50 (NIH 3T3)/EC50 (A2780)
Method in brief: as §1

[2] = test system: HT29 (colon adenocarcinoma); assay: SRB cytotoxicity assay, HT29; type: cell-based, human; conditions: for EC50: Homo sapiens, HT-29, SRB assay, 96 h of treatment, HT29; for Selectivity index (SI) HT29: SI = EC50 (NIH 3T3)/EC50 (HT29)
Method in brief: as §1

[3] = test system: MCF-7 (breast adenocarcinoma); assay: SRB cytotoxicity assay, MCF-7; type: cell-based, human; conditions: for EC50: Homo sapiens, MCF7, SRB assay, 96 h of treatment, MCF-7; for Selectivity index (SI) MCF-7: SI = EC50 (NIH 3T3)/EC50 (MCF-7)
Method in brief: as §1

[4] = test system: 8505C (thyroid carcinoma); assay: SRB cytotoxicity assay, 8505C; type: cell-based, human; conditions: for EC50: Homo sapiens, SRB assay, 96 h of treatment, 8505C; for Selectivity index (SI) 8505C: SI = EC50 (NIH 3T3)/EC50 (8505C)
Method in brief: as §1

[5] = test system: non-malignant mouse fibroblasts NIH 3T3; assay: SRB cytotoxicity assay, NIH 3T3; type: cell-based; conditions: NIH3T3, 96 h of treatment
Method in brief: as §1

[6] = test system: several human tumor cell lines; assay: SRB cytotoxicity assay, cell line panel (summary statements); type: cell-based; conditions: for EC50: Homo sapiens, summary over the cell lines tested; for SI factors (over the cancerous cell lines): SI = EC50 (NIH 3T3)/EC50 (tumor cell line), summary
Experimental: The cytotoxicity of ursolic and betulinic carboxamides 3–30 was determined in sulforhodamine B (SRB) assays.
The cell lines used were human cancer cell lines: 518A2 (melanoma), A2780 (ovarian carcinoma), HT29 (colon adenocarcinoma), MCF-7 (breast adenocarcinoma), 8505C (thyroid carcinoma) and non-malignant mouse fibroblasts NIH 3T3. Cultures were maintained as monolayers in RPMI 1640 medium with L-glutamine (Capricorn Scientific GmbH, Ebsdorfergrund, Germany) supplemented with 10% heat inactivated fetal bovineserum (Sigma-Aldrich Chemie GmbH, Steinheim, Germany) and penicillin/streptomycin (Capricorn Scientific GmbH, Ebsdorfergrund, Germany) at 37 °C in a humidified atmosphere with 5% CO2.
The cytotoxicity of the compounds was evaluated using the sulforhodamine-B (Kiton-Red S, ABCR) micro culture colorimetric assay. Cells were seeded into 96-well plates on day 0 at appropriate cell densities to prevent confluence of the cells during the period of experiment. After 24 h, the cells were treated with 6 different concentrations (1, 3, 7, 12, 20 and 30 µM) minimum. The final concentration of DMSO/DMF never exceeded 0.5%, which was non-toxic to the cells. After a 96 h treatment, the supernatant medium from the 96-well plates was discarded, the cells were fixed with 10% trichloroacetic acid (TCA) and allowed to rest at 4 °C. After 24 h fixation, the cells were washed in a strip washer and dyed with SRB solution (100 µL, 0.4% in 1% acetic acid) for about 20 min. After dying, the plates were washed four times with 1% acetic acid to remove the excess of the dye and allowed to air-dry overnight. Tris base solution (200 µL, 10 mM) was added to each well and absorbance was measured at λ = 570 nm using a 96-well plate reader (Tecan Spectra, Crailsheim, Germany). The EC50 values were averaged from three independent experiments performed each in triplicate calculated from semi logarithmic dose response curves applying a non-linear 4P Hills-slope equation (GraphPad Prism5; variables top and bottom were set to 100 and 0, respectively).

MCF-7 cells = assay: AO/PI dye exclusion test, MCF-7; type: cell-based, human; conditions: 24 h
Experimental: (§2) Extended biological investigations were performed for compounds 25 and 26 using dye exclusion acridine orange (AO)/propidium iodide (PI) assays by treating MCF-7 or A2780 tumor cells with 25 and 26, respectively for 24 h (Figure 3). […] For both compounds, membrane blebbing of some cells could also be observed. These observations can be regarded as indications of apoptosis.
(§3) Morphological characteristics of cell death were analyzed employing an AO/PI assay using human cancer cell lines A2780 and MCF-7. Approximately 8 × 10^5 cells were seeded in cell culture flasks (25 cm^2), and the cells were allowed to grow for 24 h. After removing the used medium, fresh medium was reloaded (or a blank new medium was used as a control). After 24 h, the content of the flask was collected and centrifuged (1200 rpm, 4 °C), and the pellet was gently suspended in phosphate-buffered saline (PBS (w/w), 1 mL) and centrifuged again. The PBS was removed, and the pellet gently suspended in PBS (50 µL) again. The analysis of the cells was performed using a fluorescence microscope after having mixed the cell suspension (10 µL) with a solution of AO/PI (1 µg/mL, 10 µL).

A2780 cells = assay: AO/PI dye exclusion test, A2780; type: cell-based, human; conditions: 1 µM, 24 h
Experimental: as §2, §3

## C=C(C)C1CC[C@]2(C(=O)NCCN3CCCC3)CC[C@]3(C)C(CCC4[C@@]5(C)CC[C@H](O)C(C)(C)C5CC[C@]43C)C12 (stereo partly drawn) [Compound 26, (3β)-N-(2-Pyrrolidin-1-ylethyl)-3-hydroxy-lup-20(29)-en-28-amide]
518A2 (melanoma)
  EC50: 400 ± 60 nM
  Selectivity index (SI) 518A2: 1.00
[1]
  factor by which activity is reduced compared to doxorubicin hydrochloride (DRC): 30
  EC50: 300 ± 100 nM
  Selectivity index (SI) A2780: 1.33
[2]
  EC50: 400 ± 20 nM
  Selectivity index (SI) HT29: 1.00
[3]
  EC50: 200 ± 50 nM
  Selectivity index (SI) MCF-7: 2.00
[4]
  EC50: 500 ± 60 nM
  Selectivity index (SI) 8505C: 0.80
[5]
  EC50: 400 ± 20 nM
[6]
  EC50: < 1000 nM
  SI factors (over the cancerous cell lines): ~1
MCF-7 cells; 0.75 µM
  AO/PI fluorescence microscopy, cell morphology: intact cell membranes (green staining); also recorded: protrusions in the plasma membrane (blebbing) of some cells
A2780 cells
  AO/PI fluorescence microscopy, cell morphology: both green colored cells as well as late-stage apoptotic cells

## C=C(C)C1CC[C@]2(C(=O)NCCN(C)C)CC[C@]3(C)C(CCC4[C@@]5(C)CC[C@H](O)C(C)(C)C5CC[C@]43C)C12 (stereo partly drawn) [Compound 25, (3β)-N-[2-(Dimethylamino)ethyl]-3-hydroxy-lup-20(29)-en-28-amide]
518A2 (melanoma)
  EC50: 300 ± 160 nM
  Selectivity index (SI) 518A2: 1.00
[1]
  factor by which activity is reduced compared to doxorubicin hydrochloride (DRC): 20
  EC50: 200 ± 10 nM
  Selectivity index (SI) A2780: 1.50
[2]
  EC50: 300 ± 50 nM
  Selectivity index (SI) HT29: 1.00
[3]
  EC50: 300 ± 70 nM
  Selectivity index (SI) MCF-7: 1.00
[4]
  EC50: 400 ± 40 nM
  Selectivity index (SI) 8505C: 0.75
[5]
  EC50: 300 ± 90 nM
[6]
  EC50: < 1000 nM
  SI factors (over the cancerous cell lines): ~1
MCF-7 cells; 1 µM
  AO/PI fluorescence microscopy, cell morphology: both apoptotic (membrane blebbing, marked by white arrows in Figure 3) and necrotic cells (red staining)
A2780 cells
  AO/PI fluorescence microscopy, cell morphology: both green colored cells as well as late-stage apoptotic cells
